Laboratory results taken from article PMC9121441 (Molecular pharmaceutics, 2019).
Where two headings read alike, the source gives them in different places.

Columns and labels:
CYP2B6 [1] = biological target: T1, CYP2B6 (Homo sapiens, UniProt P20813); experiment: Ketamine demethylation measured by norketamine formation; assay type: in vitro ADME; details: for Km at 10 min: human, pH 7.4, Km
T1 sequence (P20813 1-491): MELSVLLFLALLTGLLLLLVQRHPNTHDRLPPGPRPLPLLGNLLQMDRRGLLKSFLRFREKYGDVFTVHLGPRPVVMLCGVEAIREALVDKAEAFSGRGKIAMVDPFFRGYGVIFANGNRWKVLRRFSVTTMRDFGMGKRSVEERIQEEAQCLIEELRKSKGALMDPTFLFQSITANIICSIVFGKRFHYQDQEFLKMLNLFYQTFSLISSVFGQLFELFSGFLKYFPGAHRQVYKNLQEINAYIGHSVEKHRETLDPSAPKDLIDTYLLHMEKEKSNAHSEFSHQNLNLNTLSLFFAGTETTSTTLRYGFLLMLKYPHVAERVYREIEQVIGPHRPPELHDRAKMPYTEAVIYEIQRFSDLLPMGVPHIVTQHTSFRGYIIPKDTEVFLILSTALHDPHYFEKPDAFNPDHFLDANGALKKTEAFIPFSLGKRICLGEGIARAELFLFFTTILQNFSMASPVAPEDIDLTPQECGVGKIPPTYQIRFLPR

[2] = oral ketamine, first-pass metabolism; cited from earlier work
CYP2B6 [3] = biological target: T1, CYP2B6; experiment: Ketamine demethylation measured by formaldehyde formation; details: product formaldehyde
CYP2B6 [4] = biological target: T1, CYP2B6; details: human liver microsomes; cited from earlier work
[5] = N-demethylation, product R-norketamine
[6] = N-demethylation, product S-norketamine

In the case of `CNC1(c2ccccc2Cl)CCCCC1=O` (stereo not shown) [ketamine, 2-(2-chlorophenyl)-2-(methylamino)cyclohexan-1-one], the Km at 10 min (CYP2B6 [1]; [5]) is given as 4 ± 1 µM, the Km at 10 min (CYP2B6 [1]; [6]) is given as 5 ± 1 µM and the oral bioavailability [2] is given as 15%.
Work on `CN[C@@]1(c2ccccc2Cl)CCCCC1=O` [R-ketamine] yielded a Km (CYP2B6 [1]; [5]) of 11 ± 1 µM, a Vmax (CYP2B6 [1]; [5]) of 65 ± 1 pmol・min^−1・pmol CYP^−1 and a Clint (CYP2B6 [1]; Vmax/Km, product R-norketamine) of 5.7 ml・min^–1・nmol P450^–1. For the same compound, the Vmax (CYP2B6 [3]; N-demethylation) was 92 ± 2 pmol・min^−1・pmol CYP^−1 and the Clint (CYP2B6 [3]; in vitro intrinsic clearance Vmax/Km) was 6.2 ml・min^–1・nmol P450^–1.
For `CN[C@]1(c2ccccc2Cl)CCCCC1=O` [S-ketamine], the Km at 10 min (CYP2B6 [1]; [6]) is given as 10 ± 1 µM and the Km (CYP2B6 [4]) is given as 44 µM.
